In PubChem BioAssay (NCI):
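Step 1: Grow cells in 96-well plates. Step 2: Expose to compound for 48 hours at 5 concentrations. Step 3: Interpolate endpoints linearly; if unreached, use highest concentration. TGI marks complete inhibition of growth.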

Key:
Experiment in all cases: inhibition of tumour cell growth, NCI panel, 48 h
A549 NSCLC = system: A549 NSCLC
ACHN renal = system: ACHN renal
DU-145 prostate = system: DU-145 prostate
HCT-15 colon = system: HCT-15 colon
HT29 colon = system: HT29 colon
IGROV1 ovarian = system: IGROV1 ovarian
K-562 leukemia = system: K-562 leukemia
KM12 colon = system: KM12 colon
LOX IMVI melanoma = system: LOX IMVI melanoma
MALME-3M melanoma = system: MALME-3M melanoma
MDA-MB-231 breast = system: MDA-MB-231 breast
MOLT-4 leukemia = system: MOLT-4 leukemia
RPMI-8226 leukemia = system: RPMI-8226 leukemia
SK-OV-3 ovarian = system: SK-OV-3 ovarian
TK-10 renal = system: TK-10 renal
U251 CNS = system: U251 CNS
UACC-257 melanoma = system: UACC-257 melanoma
HOP-92 NSCLC = system: HOP-92 NSCLC
NCI-H522 lung = system: NCI-H522 lung

Compound	TGI (A549 NSCLC)	TGI (ACHN renal)	TGI (DU-145 prostate)	TGI (HCT-15 colon)	TGI (HT29 colon)	TGI (IGROV1 ovarian)	TGI (K-562 leukemia)	TGI (KM12 colon)	TGI (LOX IMVI melanoma)	TGI (MALME-3M melanoma)	TGI (MDA-MB-231 breast)	TGI (MOLT-4 leukemia)	TGI (RPMI-8226 leukemia)	TGI (SK-OV-3 ovarian)	TGI (TK-10 renal)	TGI (U251 CNS)	TGI (UACC-257 melanoma)	TGI (HOP-92 NSCLC)	TGI (NCI-H522 lung)
Cn1c2ccccc2c(=O)c2cccc(C(=O)NC(CS)C(=O)O)c21 (stereo unspecified)	> 100 µM	> 100 µM	> 100 µM	> 100 µM	> 100 µM	> 100 µM	> 100 µM	> 100 µM	> 100 µM	> 100 µM	> 100 µM	> 100 µM	> 100 µM	> 100 µM	> 100 µM	> 100 µM	> 100 µM		
CNCCCn1c2ccccc2c2c3c(c(-c4ccsc4)cc21)C(=O)NC3=O	2.76 µM	1.23 µM	1.89 µM	2.74 µM	2.56 µM	2.4 µM					3.06 µM	> 100 µM		2.63 µM	3.23 µM	3.71 µM	3.12 µM	2.22 µM	
N#Cc1c(-c2ccc(Cl)cc2)c(C#N)c(=O)n(NS(=O)(=O)c2ccccc2)c1O	> 100 µM	> 100 µM		62.3 µM	> 100 µM	> 100 µM	> 100 µM	77.8 µM	30.7 µM	> 100 µM	98.2 µM	71.2 µM	26.2 µM	79 µM	> 100 µM	> 100 µM	> 100 µM	71.1 µM	> 100 µM
COC(=O)NC(C(F)(F)F)(C(F)(F)F)P1(=O)OCCCO1	> 100 µM	54.2 µM	> 100 µM	59 µM	63.9 µM	68.8 µM	> 100 µM	64.7 µM	58.4 µM		62.9 µM	> 100 µM	48.5 µM	55.7 µM	97.6 µM	29.8 µM		> 100 µM	34 µM
COC(=O)C(C(=O)Cc1ccccc1[N+](=O)[O-])C(=O)OC	> 100 µM	> 100 µM		> 100 µM	> 100 µM	> 100 µM		> 100 µM	> 100 µM	> 100 µM		> 100 µM		> 100 µM	> 100 µM		> 100 µM	> 100 µM	> 100 µM
C=C(Nc1nc2ccc(C)cc2s1)C(=O)C(CC)C(=O)C(CC)CC1C(=O)NC(=O)NC1=O (stereo unspecified)	> 100 µM	> 100 µM	> 100 µM	> 100 µM		> 100 µM		> 100 µM	> 100 µM		> 100 µM	> 100 µM		> 100 µM	> 100 µM	> 100 µM	> 100 µM	> 100 µM	> 100 µM
O=C(NNC(=O)c1ccccc1O)c1cccc(Br)c1	> 100 µM	> 100 µM	> 100 µM	> 100 µM	> 100 µM	> 100 µM	> 100 µM	> 100 µM	> 100 µM	> 100 µM	> 77.7 µM	> 81 µM	> 100 µM	> 100 µM	> 100 µM	> 100 µM	> 100 µM		83.3 µM
COC(=O)c1nsc(OC)c1Cl	> 100 µM		> 100 µM	> 100 µM	> 100 µM	> 100 µM	> 100 µM	> 100 µM	> 100 µM	> 100 µM	> 100 µM	> 100 µM	> 100 µM	> 100 µM	> 100 µM	> 100 µM	> 100 µM		
CC(C)(C)OC/C=C(/CO)[C@@H]1C=C[C@H](O)C1	> 100 µM	> 100 µM		> 100 µM	> 100 µM		> 100 µM	> 100 µM		> 100 µM	> 100 µM	> 100 µM	> 100 µM	> 100 µM		> 100 µM	> 100 µM		
CCOC(=O)[C@H](C)OC(=O)[C@@](C)(NC(=O)c1ccccc1C(=O)OC)[C@@H]1NC=C(C(=O)OC)CS1	> 100 µM	> 100 µM	> 100 µM	> 100 µM	> 100 µM	> 100 µM	> 100 µM	> 100 µM		> 100 µM	> 100 µM	> 100 µM	> 100 µM	> 100 µM	> 100 µM	> 100 µM	> 100 µM		> 100 µM
COC1(OC)CCCc2c1no[n+]2[O-]	> 100 µM	> 100 µM	> 100 µM	> 100 µM	> 100 µM	> 100 µM	> 100 µM	> 100 µM	> 100 µM	> 100 µM	> 100 µM	> 100 µM	> 100 µM	> 100 µM	> 100 µM	> 100 µM	> 100 µM		> 100 µM
